Like-named read-outs stand apart in the source and are kept apart here.
Experiments:
[1] = system: human intestinal L-cells (NCI-H716); test: GLP-1 secretion in human intestinal L-cells (NCI-H716); type: cell-based; conditions: for GLP-1 secretion in vitro: NCI-H716 L-cells, 2 hours; for GLP-1 secretion in vitro by CA7S extracted from cecal contents of SG mice: material extracted from mouse cecum
DIO mice [2] = test: In vivo CA7S gavage and oral glucose tolerance test (OGTT); design: species or system mouse; conditions: gavage 100 mg/kg, vs vehicle
Experimental: (§1) Age matched, […] mice were kept on HFD and their blood glucose levels were monitored until average fasting glucose levels were >160 mg/dL. Animals were fasted for 4 hours on the day of the experiment. […] Three hours later, an OGTT was performed using an oral gavage of 2 mg/g oral D-glucose (Sigma-Aldrich, St. Louis, Mo.). Blood glucose levels were measured at baseline and at minutes 15, 30, 60 and 120 with a OneTouch glucometer.

[3] = In vivo CA7S oral gavage: CA7S concentration in tissues and blood
Experimental: Extraction. Cecal, liver, and human fecal samples (approximately 50 mg each) and mouse portal veins were pre-weighed in lysis tubes containing ceramic beads (Precellys lysing kit tough micro-organism lysing VK05 tubes for cecal, fecal samples, and portal veins; tissue homogenizing CIKMix tubes for liver samples; Bertin technologies, Montigny-le-Bretonneux, France). 400p L of methanol containing 10 μM internal standard (GCA) was added and the tubes were homogenized in a MagNA Lyser (6000 speed for 90 s*2, 7000 speed for 60 s). 50 μl of mouse serum was collected in Eppendorf tubes, followed by addition of 50 μL of methanol containing 10 μM internal standard (GCA). After vortexing for 1 min, the sample was cooled to −20° C. for 20 min. All methanol-extracted tissue samples were centrifuged at 4° C. for 30 min at 15,000 rpm. […]
UPLC-MS. […] Samples were analyzed using an Agilent Technologies 12990 Infinity 11 UPLC system coupled online to an Agilent Technologies 6120 Quadrupole LC/MS spectrometer in negative electrospray mode with a scan range of 350-550 m/z (MSD settings: fragmentor—250, gain—3.00, threshold—150, Step size—0.10, speed (u/sec)—743). […] For quantification of the analytes, standard curves were obtained using known bile acids, and then each analyte was quantified based on the standard curve and normalized based on the internal standard. […]

DIO mice [4] = test: In vivo enteral (duodenal and rectal) treatment of DIO mice: glucose, GLP-1, insulin, TGR5 expression; design: species or system mouse; conditions: for Systemic GLP-1 levels: within 15 min
pH stability test = type: physicochemical; conditions: pH 1, 7.4 and 9, overnight at 37° C.
Experimental: pH stability test. […] Briefly, buffers of pH 1 (0.1 M HCl), pH 7.4 (PBS) and pH 9 (a 10 mM solution of ammonium formate adjusted to pH 9 with ammonium hydroxide) (all from Sigma) were prepared.

Caco-2 cells = test: Cell viability assay in Caco-2 cells; type: cell-based, human; conditions: overnight incubation
Experimental: Cell viability assay. […] The concentration of DMSO was kept constant and used as a negative control. […] Cell viability was measured in Countess II automated cell counter (Invitrogen). Percentage relative viability was calculated compared to DMSO control.

[5] = CA7S concentration in tissues and blood after enteral CA7S (UPLC-MS bile acid analysis)
NCI-H716 cells = test: Calcium measurement in NCI-H716 cells; type: cell-based, human
Experimental: The cells were allowed to grow for 2 days in complete RPMI media. […] The concentration of DMSO was kept constant throughout the treatments and used as a negative control. Cells were incubated at 37° C. in an atmosphere of 5% CO2 for 2 hours. […] Cells on cell culture plates were placed on ice and gently washed with PBS (GenClone).

DIO mice [6] = test: In vivo CA7S oral gavage: systemic GLP-1; design: species or system mouse; conditions: oral gavage 100 mg/kg, 5 hours post-treatment, vs PBS
DIO mice [7] = test: CA7S gavage and OGTT after lentiviral shRNA knockdown of GLP-1R; type: in vivo, mouse; conditions: GLP-1R shRNA knockdown, gavage 100 mg/kg, vs PBS
Experimental: as §1

[8] = listed as Cholic acid-7-sulfate

## C[C@H](CCC(=O)O)[C@H]1CC[C@H]2[C@@H]3[C@H](O)C[C@@H]4C[C@H](O)CC[C@]4(C)[C@H]3C[C@H](O)[C@]12C [CA, cholic acid, reference compound]
[1]
  GLP-1 secretion in vitro: had no effect on GLP-1 secretion
[1]; listed as cholic acid
  GLP-1 secretion in vitro: had no effect

## C[C@H](CCC(=O)O)[C@H]1CC[C@H]2[C@@H]3[C@H](OS(=O)(=O)O)C[C@@H]4C[C@H](O)CC[C@]4(C)[C@H]3C[C@H](O)[C@]12C [CA7S, cholic acid-7-sulfate]
DIO mice [2]
  Total and incremental areas under the glucose versus time curves (AUC and iAUC): significantly decreased
[3]; DIO mice, CA7S gavage 100 mg/kg, 5 hours
  CA7S concentration (mean ± SEM), portal vein: 13.2 ± 7.7 pmol/µL
[3]; oral gavage 100 mg/kg, 5 hours post-gavage
  CA7S accumulation in cecal contents (mean value): 15,000 picomol/mg wet mass
DIO mice [4]; DIO mice, enteral, vs PBS
  Insulin levels: increased insulin levels
DIO mice [4]; DIO mice, enteral CA7S
  TGR5 expression in colon and terminal ileum: increased in the colon, but not the terminal ileum
DIO mice [4]; HFD-fed DIO mice, enteral 1 mg, 15 min, vs PBS
  Blood glucose levels: reduced blood glucose levels
DIO mice [4]; HFD-fed DIO mice, enteral 1 mg, vs PBS
  Systemic GLP-1 levels: increased systemic GLP-1 levels
DIO mice [4]; HFD-fed DIO mice, enteral 1 mg, vs PBS, listed as cholic acid-7-sulfate
  Systemic GLP-1 levels: induced GLP-1 levels
pH stability test
  Stability at different pHs: stable in a wide range of pHs
[1]
  GLP-1 secretion after siRNA-mediated knockdown of TGR5: abolished GLP-1 secretion
  GLP-1 secretion in vitro: to a similar degree as TDCA in a dose-dependent manner
  GLP-1 secretion in vitro by CA7S extracted from cecal contents of SG mice: also induced GLP-1 secretion in vitro
[1]; [8]
  GLP-1 secretion in vitro: induces GLP-1 secretion in vitro better than the known GLP-1 inducer TDCA
[1]; listed as cholic acid-7-sulfate
  GLP-1 secretion in vitro by CA7S extracted from cecal contents of SG mice: exhibit activity inducing GLP-1 secretion in vitro
Caco-2 cells
  Toxicity in intestinal Caco cells: no toxicity
[5]; DIO mice, enteral CA7S
  CA7S concentration (mean ± SEM), cecum: 2577 ± 185 pmol/mg
  CA7S concentration (mean ± SEM), portal vein: 6.13 ± 2.11 pmol/mg
  CA7S concentration (mean ± SEM), systemic blood: 0.5 ± 0.2 pmol/µL
[5]; administration of 1 mg via duodenal and rectal catheters
  CA7S in cecal contents (average): 2500 pmol/mg wet mass
[5]; dosing with 1 mg
  cholic acid-7-sulfate in the cecum: ~2500 µM
[5]; ectopic (enteral) introduction
  Leak into systemic circulation and portal vein: only minor amounts to leak into systemic circulation and in the portal vein
NCI-H716 cells
  Calcium levels in L-cells: dose-dependent increase in calcium levels
NCI-H716 cells; [8]
  Calcium levels in L-cells: increased calcium levels
DIO mice [6]
  Systemic levels of GLP-1: increased
DIO mice [7]
  Glycemic curves and AUCs in OGTT in the absence of GLP-1R: no significant differences in the glycemic curves or AUCs

## C[C@H](CCC(=O)NCCS(=O)(=O)O)[C@H]1CC[C@H]2[C@@H]3CC[C@@H]4C[C@H](O)CC[C@]4(C)[C@H]3C[C@H](O)[C@]12C [TDCA, taurodeoxycholic acid, reference compound]
[1]; NCI-H716, TGR5 siRNA
  GLP-1 secretion after siRNA-mediated knockdown of TGR5: abolished
